Converted amounts (≈) assume the structure as drawn.
Key:
Vero [1] = assay: Compound was evaluated for the virus rating (VR) in test 2 against Herpes simplex virus type 1 (HSV-1) in vero cells.; type: functional, Chlorocebus sabaeus
Vero [2] = assay: Compound was evaluated for the virus rating (VR) in test 1 against Herpes simplex virus type 1 (HSV-1) in vero cells.; type: functional, Chlorocebus sabaeus
Vero [3] = assay: Minimum inhibitory concentration was determined for inhibition of cytopathogenic effects produced by strain MS Herpes simplex virus type 2 (HSV-2) in vero cells.; type: functional, cell-based; conditions: Chlorocebus sabaeus
Vero [4] = assay: Minimum inhibitory concentration was determined for inhibition of cytopathogenic effects produced by strain 377 (TK+) Herpes simplex virus type 1 (HSV-1) in vero cells.; type: functional, cell-based; conditions: Chlorocebus sabaeus
Oryctolagus cuniculus [5] = species on record: Oryctolagus cuniculus; assay: Compound was evaluated for the virus rating (VR) against Herpes simplex virus type 2 (HSV-2) in rabbit kidney cells; type: functional
Oryctolagus cuniculus [6] = species on record: Oryctolagus cuniculus; assay: Minimum inhibitory concentration against strain 377 (TK+) Herpes simplex virus type 1 (HSV-1) in rabbit kidney cells.; type: functional
Oryctolagus cuniculus [7] = species on record: Oryctolagus cuniculus; assay: Compound was evaluated for the virus rating (VR) against Herpes simplex virus type 1 (HSV-1) in rabbit kidney cells.; type: functional
Oryctolagus cuniculus [8] = species on record: Oryctolagus cuniculus; assay: Minimum inhibitory concentration against strain MS Herpes simplex virus type 2 (HSV-2) in rabbit kidney cells; type: functional
[9] = Oryctolagus cuniculus, read-out: MIC50

Nc1nc2c(ncn2[C@H]2C[C@@H](CO)[C@H](O)C2)c(=O)[nH]1
VR (Vero [1]): 1.1 | VR (Vero [2]): 0.8

Nc1nc(N)c2ncn(C3CC(O)C(CO)C3)c2n1 (configuration not stated)
MIC50 (Vero [3]): Minimum inhibitory concentration was determined for inhibition of cytopathogenic effects produced by strain MS Herpes simplex virus type 2 (HSV-2) in vero cells | MIC50 (Vero [4]): Minimum inhibitory concentration was determined for inhibition of cytopathogenic effects produced by strain MS Herpes simplex virus type 2 (HSV-2) in vero cells

Nc1nc(O)c2ncn([C@@H]3C[C@H](CO)[C@@H](O)C3)c2n1 (stereo in doubt; 4b)
VR (Oryctolagus cuniculus [5]): 3.8 | MIC50 (Oryctolagus cuniculus [6]; [9]): 0.3 µg/mL (≈ 1.13 µM) | VR (Oryctolagus cuniculus [7]): 5.9 | MIC50 (Oryctolagus cuniculus [8]; [9]): 0.7 µg/mL (≈ 2.64 µM)

Nc1nc(O)c2ncn([C@@H]3C[C@H](CO)[C@@H](O)C3)c2n1 (stereo in doubt; 4b+5b)
VR (Oryctolagus cuniculus [5]): 3.7 | MIC50 (Oryctolagus cuniculus [6]): 0.3 µg/mL (≈ 1.13 µM) | VR (Oryctolagus cuniculus [7]): 7 | MIC50 (Oryctolagus cuniculus [8]): 0.8 µg/mL (≈ 3.02 µM)

Reference: ChEMBL document CHEMBL1123726, “Resolution of racemic carbocyclic analogues of purine nucleosides through the action of adenosine deaminase. Antiviral activity of the carbocyclic 2'-deoxyguanosine enantiomers” (1987)
